Data taken from PMC9643865, “Bromo-protopine, a novel protopine derivative, alleviates tau pathology by activating chaperone-mediated autophagy for Alzheimer’s disease therapy” (Frontiers in Molecular Biosciences, 2022).

Experiments:
3xTg-AD mice [1] = test: Morris water maze test; type: in vivo; details: oral, 1 and 2.5 mg/kg, 8 months
Procedure: (§1) Female homozygous 3xTg-AD mice carrying transgenes for APP (Swedish KM670/671Nl), MAPT (tauP301L) and Psen1 (M146V) were procured from Jackson’s Laboratory (# 004807). The transgenic mice colonies were bred and maintained in the HKBU animal house at 23 ± 2 °C, 60 ± 15% relative humidity with regular access to food and water. Seven-month-old 3xTg-AD mice were randomly segregated into three treatment groups: Tg-Vehicle, 1 mg/kg, and 2.5 mg/kg PRO-Br. PRO-Br was administered orally for 8 months (n = 8). The bodyweight of mice from all the groups was recorded once every week.
To determine the memory functions of experimental mice, the Morris water maze test was performed according to the procedure described previously ([Iyaswamy et al., 2020]). Mice training preliminary to the probe trail was performed in two phases. The first phase, known as the visible-platform training, comprised four trials, for 1 day. In each trial, a platform was placed in the tank, 1 cm below the surface of the (clear) water. The mouse was introduced, and the time required for the mouse to find the platform was recorded. The position of the platform was changed for every trial. […] The distance travelled (cm) to reach the platform in the target quadrant was observed and recorded by a video tracking method (Ethovision, Noldus Information Technology, Version 3).

3xTg-AD mice [2] = test: Golgi staining of dendritic spines; type: in vivo; details: oral, 8 months
Procedure: as §1
FD Rapid Golgi Stain Kit was employed to determine the dendritic spine density in the 3xTg-AD mice brains and was performed according to procedure described previously ([Iyaswamy et al., 2022]). Briefly, mice were perfused using 4% PFA, and the brains were dissected carefully to avoid damage. Next, the brain samples were frozen by dipping in isopentane solution (on dry ice). The frozen brains were sectioned at 150 μm thickness using a Shandon Cryotome SME Cryostat (Ramsey, MN, United States). The tissue slices were carefully mounted onto glass slides and stained with the kit reagents in accordance with the manufacturer’s procedure. The dendritic images were acquired by Leica confocal microscope. […]

P301S mice [3] = test: Rotarod test; type: in vivo; details: oral, 2.5 months, vs Tg-Vehicle
Procedure: (§2) Female homozygous P301S mice bearing the transgene for MAPT (P301S), were generous gifts from Michael Goedert. P301S-tau mice (1.5-month-old, n = 8) were administered with PRO-Br daily for 2.5 months. The mice models employed in the study were maintained under 12 h light-dark cycles and were provided ad libitum access to chow and water.
Motor behavior was assessed by the rotarod test (Harvard apparatus, SeDaCom v2.0.000) and was performed according to the procedure described previously ([Song et al., 2020]). The study mice were brought into the experimental room 30 min before the test. The training was conducted with a constant speed of 4, 8, and 12 rpm on days 1, 2, and 3, respectively. Three trials were conducted each day and the performance was monitored. On the fourth day, an acceleration mode (4–40 rpm in 5 min) was introduced, and the time spent (s) by each mouse on the rod was recorded by the instrument connected to a computer.

P301S mice [4] = test: Contextual fear conditioning test; type: in vivo; details: oral, 2.5 months
Procedure: as §2
After treating P301S mice with PRO-Br, fear memory consolidation was evaluated by the contextual fear conditioning (CFC) test. The experimental set-up consisted of two individual sound-proof chambers, each having an electric grid on the surface. Inside each chamber, a speaker was attached to introduce a cue tone. The movement of the mice was observed and recorded by ANY maze tracking software on a laptop. The experiment was performed with a continuous white noise (40 units) and white light (40 lux). On the first day of the training session, mice were introduced into the chamber and permitted to explore for 2.5 min. Next, each mouse received three consecutive foot shock cycles; each started with a 28 s cue tone (1,500 Hz) and finished with a 2 s foot shock ([…]). On the second day, the mice were allowed to explore the grid for 3 min, after which they received a cue tone for 30 s without foot shock, and the freezing time was recorded.

HT22 cells = test: LAMP2A / HSC70 immunocytochemistry and immunoblotting; type: cell-based, mouse
Procedure: SHSY5Y cells stably-expressing mutant tau (SHSYP301L) were cultured in DMEM/F12 + 15% FBS, 3 μg/ml Blasticidin S HCl, and 1X PSN. N2A mouse neuroblastoma and mouse hippocampal neuronal (HT22) cells were cultured in DMEM+10% FBS, and 1X PSN. Sterile complete medium containing PRO-Br was added to the cells, and they were then incubated for 24 h at an optimum temperature of 37°C in a sterile 5% CO2 incubator.
After PRO-Br treatment, cells were solubilised using cold RIPA lysis buffer (9803, Life Technologies), containing protease and phosphatase inhibitor tablets. Cells were sonicated and centrifuged at 14000 rpm for 15 min. Total protein concentration was determined by BCA protein assay, and the samples were separated on SDS-PAGE and transferred to PVDF membranes. The membranes were blocked, washed, and incubated with primary antibodies (Table 1), and incubated at 4°C, overnight. The membranes were further incubated with the required dilutions of secondary antibody for 1 h, at RT. The chemiluminescent signals were captured using x-ray film in a darkroom, with an appropriate chemiluminescent substrate kit (ThermoFisher Scientific, United States). Films were scanned, and the relative intensities of the signals were analyzed using ImageJ software.
HT22 cells were cultured in sterile 24-well culture dishes containing 14 mm cover-glass. Cells were treated with PRO-Br (12.5 and 25 μM), and DMSO (0.1%), for 24 h. Cells were fixed with paraformaldehyde (4%), permeabilized with triton-X-100 (0.1%), and blocked with BSA (2%). LAMP2A antibody (1:500), and HSC70 antibody (1:500) was added to the processed cells and incubated overnight at four°C. Alexa Fluor® 488 (green) and Alexa Fluor® 594 (red) secondary antibodies (1:400) were added and incubated for 1.5 h at room temperature. FluorSave reagent (Merck Millipore, United States) was added, then cover-slipped, and images were captured by a Leica confocal imaging system.

CN1CCc2cc3c(cc2C(=O)Cc2c(Br)cc4c(c2C1)OCO4)OCO3 [PRO-Br, bromo-protopine]
learning and memory impairment (Morris water maze) (3xTg-AD mice [1]): significantly reversed the learning and memory impairment
dendritic spine structures (thin, stubby and mushroom-like) in the hippocampus (3xTg-AD mice [2]): significantly enhanced the dendritic spine structures
latency of falling (rotarod) (P301S mice [3]): latency of falling was significantly enhanced
freezing percentage (CFC) (P301S mice [4]): significant increase in freezing percentage
expression of LAMP2A (HT22 cells; immunocytochemistry, 12.5 and 25 μM, 24 h): distinctly enhanced the expression of LAMP2A in a dose-dependent manner
interaction between HSC70 and LAMP2A (HT22 cells; immunofluorescence): markedly enhanced the interaction between HSC70 and LAMP2A
